Assay [1] has as its target B. subtilis Rel (full-length) (Bacillus subtilis, UniProt O54408). Put plainly: 3H-. Type of assay: biochemical. The following applies: 0.3 mM labelled compound; 1 mM ATP; 5 mM Mg2+; pH 7.5, 37 °C.
The target in assay [2] is T1, E. coli RelA (full-length) (Escherichia coli, UniProt P0AG20).
T1 sequence (P0AG20 1-744): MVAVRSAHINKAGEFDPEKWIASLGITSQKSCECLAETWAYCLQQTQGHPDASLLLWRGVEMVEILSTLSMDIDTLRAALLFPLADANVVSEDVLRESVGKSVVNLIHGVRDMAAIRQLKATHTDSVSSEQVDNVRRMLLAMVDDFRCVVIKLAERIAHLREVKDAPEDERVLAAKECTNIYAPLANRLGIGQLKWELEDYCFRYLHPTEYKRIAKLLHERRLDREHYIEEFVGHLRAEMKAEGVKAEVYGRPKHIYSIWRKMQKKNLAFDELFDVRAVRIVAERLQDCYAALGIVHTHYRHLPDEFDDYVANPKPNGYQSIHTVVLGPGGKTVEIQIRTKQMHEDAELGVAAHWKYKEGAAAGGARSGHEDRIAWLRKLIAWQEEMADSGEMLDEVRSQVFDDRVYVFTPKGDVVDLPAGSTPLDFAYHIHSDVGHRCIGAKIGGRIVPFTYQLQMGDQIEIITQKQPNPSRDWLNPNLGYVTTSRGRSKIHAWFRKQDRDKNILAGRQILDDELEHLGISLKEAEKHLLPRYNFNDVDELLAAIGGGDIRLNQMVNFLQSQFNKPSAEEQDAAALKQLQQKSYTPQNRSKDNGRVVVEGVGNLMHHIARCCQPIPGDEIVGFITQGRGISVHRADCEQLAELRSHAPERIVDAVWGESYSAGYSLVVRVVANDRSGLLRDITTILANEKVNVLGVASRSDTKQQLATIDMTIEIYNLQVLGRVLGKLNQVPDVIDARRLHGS
Kind of assay: 3H-. The assay is classed as biochemical. To be noted: labelled compound; 1 mM ATP; 100 μM ppGpp or pppGpp added; 37 °C.

The target of assay [3] is T2, RelA^NTD (E. coli RelA NTD, 1-385) (Escherichia coli, UniProt P0AG20).
T2 sequence (P0AG20 1-385): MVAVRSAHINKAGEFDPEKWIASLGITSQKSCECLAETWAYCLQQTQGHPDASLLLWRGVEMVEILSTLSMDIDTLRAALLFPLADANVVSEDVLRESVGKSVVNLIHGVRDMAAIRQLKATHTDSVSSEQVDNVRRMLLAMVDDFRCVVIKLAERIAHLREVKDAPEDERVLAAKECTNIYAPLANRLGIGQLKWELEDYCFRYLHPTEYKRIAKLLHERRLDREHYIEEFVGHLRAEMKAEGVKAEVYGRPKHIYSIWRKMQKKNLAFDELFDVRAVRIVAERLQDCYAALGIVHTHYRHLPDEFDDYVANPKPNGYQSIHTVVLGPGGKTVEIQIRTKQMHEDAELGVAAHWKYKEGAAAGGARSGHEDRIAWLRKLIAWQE
Put plainly: isothermal titration calorimetry. The assay is classed as binding.

Assay [4] addresses Rel^NTD (B. subtilis Rel NTD, 1-373) (Bacillus subtilis, UniProt O54408). Put plainly: isothermal titration calorimetry. Type of assay: binding. Background: ITC needs no label: the signal is the heat of the interaction.

Rel^NTD (B. subtilis Rel NTD, 1-373), sequence (O54408 1-373): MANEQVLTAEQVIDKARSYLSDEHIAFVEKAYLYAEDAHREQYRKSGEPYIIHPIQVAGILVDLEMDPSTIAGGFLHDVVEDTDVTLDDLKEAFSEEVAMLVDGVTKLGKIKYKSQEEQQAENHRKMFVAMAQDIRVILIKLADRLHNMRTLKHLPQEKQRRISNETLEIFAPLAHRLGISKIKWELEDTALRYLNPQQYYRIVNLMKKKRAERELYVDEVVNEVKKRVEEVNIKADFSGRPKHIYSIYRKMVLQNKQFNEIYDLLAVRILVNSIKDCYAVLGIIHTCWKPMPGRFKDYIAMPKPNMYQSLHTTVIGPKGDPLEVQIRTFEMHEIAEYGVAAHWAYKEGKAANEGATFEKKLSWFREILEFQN
B. subtilis Rel (full-length), sequence (O54408 whole entry): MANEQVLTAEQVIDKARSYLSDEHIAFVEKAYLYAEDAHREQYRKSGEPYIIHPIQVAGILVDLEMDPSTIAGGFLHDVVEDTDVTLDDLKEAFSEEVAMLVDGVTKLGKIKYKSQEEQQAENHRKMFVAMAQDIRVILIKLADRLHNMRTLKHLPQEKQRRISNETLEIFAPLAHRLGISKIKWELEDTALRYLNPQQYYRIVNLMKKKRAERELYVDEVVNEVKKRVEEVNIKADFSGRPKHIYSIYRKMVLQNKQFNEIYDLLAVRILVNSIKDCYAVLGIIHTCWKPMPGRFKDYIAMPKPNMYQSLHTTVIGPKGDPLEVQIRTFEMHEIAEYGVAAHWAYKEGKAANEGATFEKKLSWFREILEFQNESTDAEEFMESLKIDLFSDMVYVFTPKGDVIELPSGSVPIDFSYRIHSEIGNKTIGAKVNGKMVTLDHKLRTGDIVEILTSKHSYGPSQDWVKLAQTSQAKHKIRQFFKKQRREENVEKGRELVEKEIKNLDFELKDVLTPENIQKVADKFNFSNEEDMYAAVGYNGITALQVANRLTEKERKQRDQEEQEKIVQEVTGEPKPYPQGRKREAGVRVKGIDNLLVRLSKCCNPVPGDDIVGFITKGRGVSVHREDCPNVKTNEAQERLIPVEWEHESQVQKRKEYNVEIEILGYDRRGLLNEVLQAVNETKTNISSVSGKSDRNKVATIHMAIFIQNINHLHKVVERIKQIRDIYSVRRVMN

Take `Nc1nc2c(ncn2[C@@H]2O[C@H](COP(=O)(O)OP(=O)(O)OP(=O)(O)O)[C@@H](O)[C@H]2O)c(=O)[nH]1` [GTP]: the “3H-(p)ppGpp synthesis assay, TLC and scintillation counting” value in assay [1] was “B. subtilis Rel is moderately more efficient in converting GTP to pppGpp”. Consider `Nc1nc2c(ncn2[C@@H]2O[C@H](COP(=O)(O)OP(=O)(O)O)[C@@H](O)[C@H]2O)c(=O)[nH]1` [GDP], for which the “3H-(p)ppGpp synthesis assay, TLC and scintillation counting” value in assay [2] is given as “the ppGpp alarmone is produced in situ from 3H-GDP”. As usually defined, the Kd is the free concentration of one partner at which half of the binding sites on the other are occupied at equilibrium, for simple one-to-one binding. Lower therefore signals a tighter complex. Consider `Nc1nc2c(ncn2[C@@H]2O[C@H](COP(=O)(O)OP(=O)(O)OP(=O)(O)O)[C@@H](OP(=O)(O)OP(=O)(O)O)[C@H]2O)c(=O)[nH]1` [pppGpp], for which the Kd in assay [3] was found to be 6.9 ± 0.9 µM; in assay [4], 10.6 ± 0.9 µM.

The values are drawn from article PMC7797070 (Nucleic Acids Research, 2020).
